Measurements: ChEMBL document CHEMBL5385861, “Development of novel hydrazidoarylaminopyrimidine-based BTK/FLT3 dual inhibitors with potent in vivo anti-hematological malignancies effects” (Eur J Med Chem, 2023)
The source made the active and inactive calls. The calls are words filed in the database; no cut-off is given here.

Tests used:
[1] = biological target: Tyrosine-protein kinase BTK (Homo sapiens, UniProt Q06187); test: Inhibition of BTK (unknown origin) incubated for 40 mins by radiometric kinase assay
Sequence of Tyrosine-protein kinase BTK (Q06187 whole entry): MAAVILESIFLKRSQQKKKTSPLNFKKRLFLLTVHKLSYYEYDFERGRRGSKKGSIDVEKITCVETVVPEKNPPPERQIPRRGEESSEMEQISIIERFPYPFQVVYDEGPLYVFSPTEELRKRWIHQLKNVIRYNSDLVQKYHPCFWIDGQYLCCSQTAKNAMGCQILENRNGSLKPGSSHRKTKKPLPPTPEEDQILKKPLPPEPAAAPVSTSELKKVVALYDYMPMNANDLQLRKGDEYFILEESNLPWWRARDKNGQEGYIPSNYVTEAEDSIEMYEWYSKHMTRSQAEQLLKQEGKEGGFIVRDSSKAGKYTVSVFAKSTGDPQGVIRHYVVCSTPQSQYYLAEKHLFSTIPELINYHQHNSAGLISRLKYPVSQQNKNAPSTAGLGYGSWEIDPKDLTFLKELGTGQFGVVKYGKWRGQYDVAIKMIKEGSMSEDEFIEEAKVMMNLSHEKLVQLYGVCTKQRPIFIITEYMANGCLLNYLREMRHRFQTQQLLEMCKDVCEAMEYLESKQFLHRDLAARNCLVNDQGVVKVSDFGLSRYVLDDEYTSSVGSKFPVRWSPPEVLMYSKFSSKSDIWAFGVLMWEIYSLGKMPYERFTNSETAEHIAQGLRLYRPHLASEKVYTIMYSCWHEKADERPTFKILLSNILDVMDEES

[2] = biological target: Tyrosine-protein kinase CSK (Homo sapiens) (UniProt P41240); test: Inhibition of CSK (unknown origin) at 0.2 uM incubated for 40 mins by radiometric kinase assay relative to control
Sequence of Tyrosine-protein kinase CSK (Homo sapiens) (P41240 2-450 limits assumed): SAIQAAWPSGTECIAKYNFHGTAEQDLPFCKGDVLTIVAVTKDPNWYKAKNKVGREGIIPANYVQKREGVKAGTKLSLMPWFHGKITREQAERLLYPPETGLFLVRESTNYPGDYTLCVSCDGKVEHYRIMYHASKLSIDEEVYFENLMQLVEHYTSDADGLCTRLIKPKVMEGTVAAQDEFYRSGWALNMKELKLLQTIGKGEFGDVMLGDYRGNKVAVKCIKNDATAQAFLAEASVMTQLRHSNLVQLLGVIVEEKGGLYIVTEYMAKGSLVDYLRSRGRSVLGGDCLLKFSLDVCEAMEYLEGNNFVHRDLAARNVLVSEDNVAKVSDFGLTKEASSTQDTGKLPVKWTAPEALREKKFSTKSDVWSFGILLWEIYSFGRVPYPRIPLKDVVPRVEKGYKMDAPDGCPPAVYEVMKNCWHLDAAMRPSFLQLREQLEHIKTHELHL

[3] = biological target: Histone deacetylase (Homo sapiens) (UniProt Q13547+O15379+Q9UBN7+Q92769+Q9UQL6+Q8WUI4+Q9BY41+Q96DB2+P56524+Q9UKV0+Q969S8); test: Inhibition of HDAC (unknown origin) at 0.2 uM incubated for 40 mins by radiometric kinase assay relative to control; assay type: protein assay
[4] = biological target: Inhibitor of nuclear factor kappa-B kinase subunit beta (Homo sapiens) (UniProt O14920); test: Inhibition of IKKbeta (unknown origin) at 0.2 uM incubated for 40 mins by radiometric kinase assay relative to control
Sequence of Inhibitor of nuclear factor kappa-B kinase subunit beta (Homo sapiens) (O14920 whole entry): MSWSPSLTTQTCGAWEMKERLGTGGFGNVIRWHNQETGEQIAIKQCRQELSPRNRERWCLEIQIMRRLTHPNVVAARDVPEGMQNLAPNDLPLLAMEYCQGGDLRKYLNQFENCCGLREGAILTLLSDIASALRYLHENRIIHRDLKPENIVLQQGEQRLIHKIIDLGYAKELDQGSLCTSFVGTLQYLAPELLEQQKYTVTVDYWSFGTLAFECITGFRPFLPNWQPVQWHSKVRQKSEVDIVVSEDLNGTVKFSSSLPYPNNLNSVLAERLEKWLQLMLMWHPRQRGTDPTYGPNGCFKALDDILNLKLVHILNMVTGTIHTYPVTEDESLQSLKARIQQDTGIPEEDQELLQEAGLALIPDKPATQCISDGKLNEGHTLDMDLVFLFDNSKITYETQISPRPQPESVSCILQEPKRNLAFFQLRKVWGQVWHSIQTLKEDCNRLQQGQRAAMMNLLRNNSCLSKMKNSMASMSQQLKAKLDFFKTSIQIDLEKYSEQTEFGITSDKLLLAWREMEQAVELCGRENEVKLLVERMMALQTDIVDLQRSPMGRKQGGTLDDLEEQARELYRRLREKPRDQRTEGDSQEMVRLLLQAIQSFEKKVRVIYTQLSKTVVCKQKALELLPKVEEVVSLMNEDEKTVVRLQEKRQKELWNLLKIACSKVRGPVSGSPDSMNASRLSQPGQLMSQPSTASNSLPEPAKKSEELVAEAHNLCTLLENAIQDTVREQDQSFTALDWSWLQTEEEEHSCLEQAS

[5] = biological target: Dual specificity mitogen-activated protein kinase kinase 6 (Homo sapiens) (UniProt P52564); test: Inhibition of MKK6 (unknown origin) at 0.2 uM incubated for 40 mins by radiometric kinase assay relative to control
Sequence of Dual specificity mitogen-activated protein kinase kinase 6 (Homo sapiens) (P52564 whole entry): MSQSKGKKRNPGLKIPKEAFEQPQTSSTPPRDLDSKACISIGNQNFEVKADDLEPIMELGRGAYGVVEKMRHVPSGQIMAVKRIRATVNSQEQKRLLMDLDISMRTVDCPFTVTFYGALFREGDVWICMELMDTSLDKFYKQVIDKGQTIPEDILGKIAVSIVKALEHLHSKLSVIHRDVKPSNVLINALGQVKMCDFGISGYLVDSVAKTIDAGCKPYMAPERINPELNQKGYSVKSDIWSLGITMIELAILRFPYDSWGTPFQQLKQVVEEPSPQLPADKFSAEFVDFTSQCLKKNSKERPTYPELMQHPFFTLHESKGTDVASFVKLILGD

[6] = biological target: PI3-kinase p110-alpha/p85-alpha (Homo sapiens) (UniProt P27986+P42336); test: Inhibition of PI3 Kinase p110a/p85a (unknown origin) at 0.2 uM incubated for 40 mins by radiometric kinase assay relative to control; assay type: protein-complex assay
[7] = biological target: Serine/threonine-protein kinase pim-1 (Homo sapiens) (UniProt P11309); test: Inhibition of PIM-1 (unknown origin) at 0.2 uM incubated for 40 mins by radiometric kinase assay relative to control
Sequence of Serine/threonine-protein kinase pim-1 (Homo sapiens) (P11309 whole entry, looked up): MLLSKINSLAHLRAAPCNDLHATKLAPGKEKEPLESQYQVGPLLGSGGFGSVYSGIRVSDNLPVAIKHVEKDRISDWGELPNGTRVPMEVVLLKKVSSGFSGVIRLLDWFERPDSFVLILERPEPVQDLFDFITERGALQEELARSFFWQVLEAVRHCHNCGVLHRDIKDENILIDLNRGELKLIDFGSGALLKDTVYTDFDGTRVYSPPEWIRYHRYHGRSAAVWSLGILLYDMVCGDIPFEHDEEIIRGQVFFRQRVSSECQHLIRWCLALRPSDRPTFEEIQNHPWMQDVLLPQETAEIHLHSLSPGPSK

[8] = biological target: Mitogen-activated protein kinase 13 (Homo sapiens) (UniProt O15264); test: Inhibition of SAPK4 (unknown origin) at 0.2 uM incubated for 40 mins by radiometric kinase assay relative to control
Sequence of Mitogen-activated protein kinase 13 (Homo sapiens) (O15264 whole entry): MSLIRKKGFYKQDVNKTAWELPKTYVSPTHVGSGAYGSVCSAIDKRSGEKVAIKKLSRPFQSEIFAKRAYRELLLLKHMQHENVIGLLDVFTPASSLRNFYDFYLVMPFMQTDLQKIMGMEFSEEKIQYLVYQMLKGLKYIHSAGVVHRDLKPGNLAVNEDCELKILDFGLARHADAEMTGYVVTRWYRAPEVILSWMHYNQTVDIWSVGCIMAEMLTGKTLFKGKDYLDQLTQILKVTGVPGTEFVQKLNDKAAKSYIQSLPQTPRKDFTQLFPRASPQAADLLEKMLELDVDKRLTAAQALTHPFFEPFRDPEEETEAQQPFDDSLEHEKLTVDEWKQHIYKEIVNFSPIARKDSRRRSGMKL

[9] = system: K562; test: Potency index, ratio of spebrutinib IC50 to test compound IC50 for antiproliferative activity against human K562 cells; assay type: functional
[10] = system: MV4-11; test: Potency index, ratio of ibrutinib IC50 to test compound IC50 for antiproliferative activity against human MV4-11 cells; assay type: functional
[11] = system: K562; test: Potency index, ratio of ibrutinib IC50 to test compound IC50 for antiproliferative activity against human K562 cells; assay type: functional
[12] = system: MOLT-4; test: Potency index, ratio of sorafenib IC50 to test compound IC50 for antiproliferative activity against human MOLT-4 cells; assay type: functional
[13] = biological target: 1-phosphatidylinositol 4,5-bisphosphate phosphodiesterase gamma-2 (Homo sapiens) (UniProt P16885); test: Inhibition of PLCgamma2 phosphorylation in human JeKo-1 cells incubated for 72 hrs by Western blot analysis; assay type: cell-based; conditions: dose 30-750 nM
Sequence of 1-phosphatidylinositol 4,5-bisphosphate phosphodiesterase gamma-2 (Homo sapiens) (P16885 whole entry): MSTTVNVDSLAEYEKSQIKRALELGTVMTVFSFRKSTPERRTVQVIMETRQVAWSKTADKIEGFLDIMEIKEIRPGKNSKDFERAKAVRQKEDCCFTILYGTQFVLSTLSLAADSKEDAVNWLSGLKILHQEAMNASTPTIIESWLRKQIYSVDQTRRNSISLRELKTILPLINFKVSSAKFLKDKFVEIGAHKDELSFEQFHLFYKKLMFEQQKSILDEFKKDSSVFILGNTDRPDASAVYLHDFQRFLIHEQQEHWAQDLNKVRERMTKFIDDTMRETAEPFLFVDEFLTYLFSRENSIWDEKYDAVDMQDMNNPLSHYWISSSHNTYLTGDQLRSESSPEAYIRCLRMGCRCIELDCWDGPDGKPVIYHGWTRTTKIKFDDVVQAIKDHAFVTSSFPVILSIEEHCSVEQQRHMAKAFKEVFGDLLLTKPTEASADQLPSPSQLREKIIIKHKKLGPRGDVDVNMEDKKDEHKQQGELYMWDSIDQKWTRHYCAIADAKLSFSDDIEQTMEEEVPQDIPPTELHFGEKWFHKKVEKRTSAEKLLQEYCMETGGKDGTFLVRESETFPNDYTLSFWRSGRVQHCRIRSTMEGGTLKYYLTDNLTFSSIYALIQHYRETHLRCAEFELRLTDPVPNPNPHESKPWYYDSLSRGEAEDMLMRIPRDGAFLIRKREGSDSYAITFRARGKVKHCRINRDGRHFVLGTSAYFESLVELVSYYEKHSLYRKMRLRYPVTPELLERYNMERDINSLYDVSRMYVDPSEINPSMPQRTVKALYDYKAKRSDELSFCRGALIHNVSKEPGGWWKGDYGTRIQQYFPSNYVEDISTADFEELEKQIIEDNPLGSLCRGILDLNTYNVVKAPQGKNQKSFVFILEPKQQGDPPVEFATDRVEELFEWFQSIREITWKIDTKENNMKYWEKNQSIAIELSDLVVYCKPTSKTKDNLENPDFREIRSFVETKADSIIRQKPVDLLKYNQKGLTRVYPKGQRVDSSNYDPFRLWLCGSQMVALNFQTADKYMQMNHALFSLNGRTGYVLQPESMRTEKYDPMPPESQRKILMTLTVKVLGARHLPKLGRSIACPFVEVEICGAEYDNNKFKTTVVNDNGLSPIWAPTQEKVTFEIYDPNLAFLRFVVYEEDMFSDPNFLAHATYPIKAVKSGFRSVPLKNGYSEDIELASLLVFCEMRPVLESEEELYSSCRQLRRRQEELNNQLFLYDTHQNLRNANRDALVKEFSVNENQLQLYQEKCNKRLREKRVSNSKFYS

[14] = system: JeKo-1; test: Induction of apoptosis in human JeKo-1 cells assessed as early apoptotic cells at 30 nM incubated for 72 hrs by Annexin VFITC/PI staining based flow cytometry analysis (reference value: 3.10%); assay type: functional
[15] = system: JeKo-1; test: Induction of apoptosis in human JeKo-1 cells assessed as late apoptotic cells at 30 nM incubated for 72 hrs by Annexin VFITC/PI staining based flow cytometry analysis (reference value: 1.42%); assay type: functional
[16] = system: JeKo-1; test: Induction of apoptosis in human JeKo-1 cells assessed as viable cells at 150 nM incubated for 72 hrs by Annexin VFITC/PI staining based flow cytometry analysis (reference value: 94.81%); assay type: functional; conditions: read-out: Activity
[17] = system: JeKo-1; test: Induction of apoptosis in human JeKo-1 cells assessed as late apoptotic cells at 750 nM incubated for 72 hrs by Annexin VFITC/PI staining based flow cytometry analysis (reference value: 1.42%); assay type: functional
[18] = system: JeKo-1; test: Induction of apoptosis in human JeKo-1 cells assessed as necrotic cells at 750 nM incubated for 72 hrs by Annexin VFITC/PI staining based flow cytometry analysis (reference value: 0.67%); assay type: functional
[19] = system: JeKo-1; test: Induction of apoptosis in human JeKo-1 cells assessed as upregulation of Bax protein expression at 30 to 750 nM incubated for 72 hrs by Western blot analysis; assay type: functional, cell-based; conditions: dose 30-750 nM
[20] = system: JeKo-1; test: Induction of apoptosis in human JeKo-1 cells assessed as upregulation of p53 protein expression incubated for 72 hrs by Western blot analysis; assay type: functional, cell-based; conditions: dose 30-750 nM
[21] = Acute toxicity in ip dosed ICR mouse assessed as lethal dose measured for 2 weeks; assay type: organism-based; conditions: in vivo
[22] = Acute toxicity in ip dosed ICR mouse assessed as effect on RBC level at 200 mg/kg, ip measured for 2 weeks; assay type: organism-based, Erythrocyte; conditions: in vivo, 336 h
[23] = system: PBMC; test: Cytotoxicity against human PBMC cells assessed as reduction in cell viability; assay type: toxicity, cell-based
[24] = system: JeKo-1; test: Antitumor activity against human JeKo-1 cells xenografted in ip dosed NOD/SCID mouse assessed as suppression of tumor growth measured for 16 days; assay type: functional, organism-based; conditions: dose 25-50 mg/kg, time 16.0 day
[25] = Toxicity in NOD/SCID mouse xenografted with human JeKo-1 cells assessed as drinking abnormalities at 25 to 50 mg/kg, ip measured for 16 days; assay type: organism-based; conditions: in vivo, 384 h, dose 25-50 mg/kg, time 16 day
[26] = system: JeKo-1; test: Antitumor activity against human JeKo-1 cells xenografted NOD/SCID mouse assessed as reduction in tumor weight at 50 mg/kg, ip measured for 16 days; assay type: functional; conditions: time 16 day
[27] = system: MV4-11; test: Antitumor activity against human MV4-11 cells xenografted in ip dosed NOD/SCID mouse assessed as suppression of tumor growth administered once daily for 21 days; assay type: functional, organism-based; conditions: dose 10-20 mg/kg, time 21.0 day
[28] = system: MV4-11; test: Antitumor activity against human MV4-11 cells xenografted in NOD/SCID mouse assessed as tumor growth inhibition at 20 mg/kg ip administered once daily for 21 days; assay type: functional; conditions: MV4-11, 504 h, time 21 day, read-out: TGI
[29] = Toxicity in NOD/SCID mouse xenografted with human MV4-11 cells assessed as effect on body weight loss at 10 to 20 mg/kg, ip administered once daily for 21 days; assay type: organism-based; conditions: in vivo, 504 h, dose 10-20 mg/kg, time 21 day
[30] = system: MV4-11; test: Antitumor activity against human MV4-11 cells xenografted NOD/SCID mouse assessed as reduction in tumor weight at 10 mg/kg, ip administered once daily for 21 days; assay type: functional; conditions: time 21 day
[31] = in vitro; conditions: human, Caco-2
Description: Apparent permeability across apical to basolateral side in human Caco-2 cells incubated for 120 mins by LC-MS/MS analysis

[32] = system: Tyrosine-protein kinase Tec; test: Inhibition of TEC (unknown origin) at 0.2 uM incubated for 40 mins by radiometric kinase assay relative to control; conditions: Homo sapiens

CN1CCN(c2ccc(Nc3ncc(F)c(Nc4ccccc4C(=O)NN)n3)cc2)CC1
IC50 [1]: 47 nM
inhibition [2]: 6%
inhibition [3]: 5%
inhibition [4]: 15%
inhibition [5]: 10%
inhibition [6]: 13%
inhibition [7]: 28%
inhibition [8]: 3%
Ratio IC50 [9]: 8
Ratio IC50 [10]: 6
Ratio IC50 [11]: 6
Ratio IC50 [12]: 1.3
inhibition [13]: Dose-Dependent Effect
Activity [14]: 12.08%
Activity [15]: 0.18%
viability at 0.15 µM [16]: 72.4%
Activity [17]: 0.47%
Activity [18]: 0.11%
Activity [19]: Active
Activity [20]: Dose-Dependent Effect
LD50 at 336 h [21]: 343 mg/kg
Activity [22]: Toxic
Activity [23]: Non-Toxic
Activity [24]: Dose-Dependent Effect
Activity [25]: Non-Toxic
Activity [26]: 0.18 g
Activity [27]: Dose-Dependent Effect
inhibition in vivo at 20 mg/kg [28]: 100%
Activity [29]: Non-Toxic
Activity [30]: 0.33 g
Papp A→B at 2 h [31]: 5.11 ×10⁻⁶ cm/s
inhibition [32]: 47%
